Assay [1] concerns A2aAR-transfected HEK293 cells. Put plainly: Comet assay in A2aAR-transfected HEK293 cells. The note with it: Homo sapiens, 100 μM H2O2, read-out: IC50, DNA damage protection. Type of assay: cell-based. The protocol:
(§1) A single-cell gel electrophoresis (SCGE) assay, known as the “Comer” assay was performed to detect/quantify DNA damage by identifying DNA-strand breakage in individual cells, for example. The assay was performed using a kit commercially-available from Trevigen, Inc., of Gaithersburg, Md., as “CometAssay™.” See P. J. McCarthy et al. (1997) Mutagenesis 12:209-214; A. R. Collins et al. (2001) Biochem. Soc. Trans. 29:337-341. Sub-confluent cells were washed with phosphate buffered saline (PBS) and detached from the tissue culture flasks using a 0.05% trypsin solution. After centrifugation, the cells were washed and re-suspended in serum-free DMEM medium. […]
(§2) The slides were placed at 4° C. in the dark for ten minutes and subsequently immersed in pre-chilled Lysis Solution at 4° C. for an additional thirty minutes. […] Comet tail fluorescence intensity was quantified with a Diagnostic Instruments digitized camera, mounted on a Nikon Eclipse E400 microscope, using Scion Image software. Quantification of comet fluorescence was performed as described in P. J. McCarthy et al. (1997) Mutagenesis 12:209-214. […] The data are shown either in arbitrary fluorescent units, or as % DNA damage protection (i.e., the percent decrement in tail fluorescence intensity with test reagent, relative to the intensity recorded in cells treated with hydrogen peroxide only)±S.E.M. […]

For assay [2], the system named is human fibroblastoid M1 cells. Put plainly: Comet assay, inhibition of 2CA- or IPP-mediated DNA damage protection by antagonists/inhibitors. Set-up: key to Mechanism of Signal Transduction: PKA / Mechanism of Signal Transduction: Mevalonate Pathway / Mechanism of Signal Transduction: GGT / Mechanism of Signal Transduction: FT / Mechanism of Signal Transduction: Proteasome: “+” indicates a dependence; “−” indicates independence. The assay is classed as cell-based. As to the method: (§3) A single-cell gel electrophoresis (SCGE) assay, known as the “Comer” assay was performed to detect/quantify DNA damage by identifying DNA-strand breakage in individual cells, for example. The assay was performed using a kit commercially-available from Trevigen, Inc., of Gaithersburg, Md., as “CometAssay™.” See P. J. McCarthy et al. (1997) Mutagenesis 12:209-214; A. R. Collins et al. (2001) Biochem. Soc. Trans. 29:337-341. Sub-confluent cells were washed with phosphate buffered saline (PBS) and detached from the tissue culture flasks using a 0.05% trypsin solution. After centrifugation, the cells were washed and re-suspended in serum-free DMEM medium. The cells were divided into Eppendorf tubes (1.5 ml), and centrifuged at 2500 rotations per minutes (rpm) for ten minutes. Signal-modulating agents were added and samples were kept in a 37° C. incubator for thirty minutes. In some experiments, the cells were pre-incubated with various inhibitors for the indicated times at 37° C. At the end of the incubation period with signal-modulating chemicals, the cells were washed with PBS and treated with 100 μM H2O2 in 0.5 ml PBS on ice for twenty minutes. Following the hydrogen peroxide treatment, the cells were immediately microfuged for fifteen seconds. The cells were twice washed with cold PBS, and re-suspended at 1.0×10^5 cells/ml in ice-cold PBS. Five microliter cell suspension were each mixed with 50 μl molten LMAgarose and, thereafter, the mixtures were placed onto slides (CometSlide™).
(§4) The slides were placed at 4° C. in the dark for ten minutes and subsequently immersed in pre-chilled Lysis Solution at 4° C. for an additional thirty minutes. Following this incubation, excess buffer was tapped off from the slides. Subsequently, the slides were placed in a 50 ml Coplin jar containing alkali buffer for thirty minutes at room temperature in the dark and then immersed in 50 ml of TBE buffer for five minutes. The slides were then placed flat onto a gel tray submerged in TBE buffer in a horizontal electrophoresis apparatus, and aligned equidistant from the electrodes. Electrophoresis was performed at one volt per centimeter (cm) for ten minutes. Following this electrophoresis, the samples were fixed in 100% methanol for five minutes and 100% ethanol for five minutes. After drying, 50 μl of diluted SYBR Green Concentrate was added onto each circle of agarose. Comet tail fluorescence intensity was quantified with a Diagnostic Instruments digitized camera, mounted on a Nikon Eclipse E400 microscope, using Scion Image software. Quantification of comet fluorescence was performed as described in P. J. McCarthy et al. (1997) Mutagenesis 12:209-214. Each data point was derived from 30 to 100 individual cells. The data are shown either in arbitrary fluorescent units, or as % DNA damage protection (i.e., the percent decrement in tail fluorescence intensity with test reagent, relative to the intensity recorded in cells treated with hydrogen peroxide only)±S.E.M.
Specifically, […], human fibroblastoid M1 cells were incubated for thirty minutes in either H-89 or 8-bromoguanosine-3′,5′-cyclic monophosphate (8-Br-cGMP) (B), or for fifteen minutes in SNAP, at different concentrations. […] Following induction of oxidative stress, DNA damage was quantified using the Comet assay, as described above. Shown in FIGS. 14-16 are graphs illustrating the DNA damage protection as function of the molar concentration of H-89 (FIG. 14), 8-Br-cGMP (FIG. 15), and SNAP (FIG. 16).
In yet another test, human fibroblastoid M1 cells were pre-incubated for fifteen minutes with different concentrations of the A2bAR antagonist, enprofylline (Enpro).

Assay [3] deals with p53-deficient cell lines HL60 and K562 and the nucleotide excision repair-deficient line XPA. Put plainly: DNA damage protection in p53-deficient and nucleotide excision repair-deficient lines (data not shown). Type of assay: cell-based.
Assay [4] relates to A2bAR-transfected HEK293 cells. The assay can be described thus: Comet assay in A2bAR-transfected HEK293 cells. Type of assay: cell-based. Particulars: Homo sapiens, 100 μM H2O2, read-out: IC50, DNA damage protection. As to the method: as §1, §2
For assay [5], the system named is human fibroblastoid M1 cells. Put plainly: Measurement of cAMP levels (EIA kit). The assay is classed as cell-based. Particulars: 10 μM agent, in presence of RO20-1724; FIG. 18. The protocol: Cyclic AMP levels were measured using a kit that is commercially-available from Amersham Biosciences of Piscataway, N.J., under the name “EIA Kit” (Cat. No. RPN225). Specifically, human fibroblastoid M1 cells were cultured overnight in 6-well tissue culture plates, 2×10^5 cells per well. Before stimulation, the cells were washed once with serum-free DMEM medium and incubated in 37° C. with 0.2 millimolar (mM) RO20-1724, a phosphodiesterase inhibitor, for fifteen minutes. Following this incubation period, 10 μM of either 2-chloroadenosine or isopentenyl diphosphate were added to each cell culture, and the cells cultures were thereafter maintained at 37° C. for the indicated time in the presence of phosphodiesterase inhibitor (RO20-1724). Determination of cAMP levels was performed with the EIA Kit in accordance with its manufacturer's instructions.
In another test, human fibroblastoid M1 cells also were stimulated with 10 μM 2-chloroadenosine or isopentenyl diphosphate, and cAMP levels were quantified.

Assay [6] has as its system human fibroblastoid M1 cells. The assay can be described thus: Measurement of ROS (DCFH-DA fluorescence). The assay is classed as cell-based. The note with it: for H2O2-induced ROS formation: 10 μM agent, 100 μM H2O2, FIG. 4.
Method: The presence of reactive oxidative species was measured using commercially-available equipment in accordance with the manufacturer's instructions. Specifically, sub-confluent cells were detached from flasks using 0.05% trypsin and 5×10^3 human fibroblastoid M1 cells per well were seeded into 96-well plates (Falcon 35-3072). After an overnight culture, the cells were twice washed with DMEM-phenol red-free medium. The cells were subsequently treated with various concentrations of signal-modulating agents in the presence of 10 micromolar (μM) DCFH-DA in 100 microliters (μl) DMEM-phenol red-free medium at 37° C. for 30 minutes. This medium was replaced by a 100 μl DMEM-phenol red-free medium containing DCFH-DA and either 50 mU/ml GO, or 100 μM H2O2, and the cultures were subsequently incubated at 37° C. for 30 minutes. After thirty minutes incubation, the plates were read by CytoFluor™ 2300 (Millipore) at an excitation wavelength (Ex) of 480 nm and emission wavelength (Em) of 520 nm, or by Fusion-Alpha HT system (PerkinElmer Life Sciences, Boston, Mass.) at Ex 485 nm and Em 530 nm.
ROS levels were quantified using the Fusion-Alpha HT system, as described above.
To verify the efficiency of that pathway, DCFH-DA-loaded human fibroblastoid M1 cells were incubated with 10 μM 2-chloroadenosine for thirty minutes followed by incubation with 100 μM H2O2 for twenty minutes to induce oxidative stress. […] ROS levels were quantified using the CytoFluor™ 2300 system, as described above.
Assay [7] deals with murine L-cell fibroblasts, human cells of lymphoid, fibroblastoid, myeloid, or neuronal lineages. The assay can be described thus: Antioxidative signaling in other cell lineages and species (data not shown). The assay is classed as cell-based.
In assay [8] the test system is human fibroblastoid M1 cells. Put plainly: Comet assay, protection against H2O2-induced DNA damage. Type of assay: cell-based. The protocol: as §3, §4
A dose response analysis of DNA damage protection also was performed to determine the efficacy of various doses of isopentenyl diphosphate versus 2-chloroadenosine. The analysis was carried out by pre-incubating human fibroblastoid M1 cells for thirty minutes with different concentrations of isopentenyl diphosphate or 2-chloroadenosine prior to incubating the cells with 100 μM H2O2 to induce oxidative stress. Following induction of oxidative stress, DNA damage was quantified using the Comet assay, as described above.

In assay [9] the test system is A1AR-transfected HEK293 cells. The assay can be described thus: Comet assay in A1AR-transfected HEK293 cells. Type of assay: cell-based, human. As to the method: A single-cell gel electrophoresis (SCGE) assay, known as the “Comer” assay was performed to detect/quantify DNA damage by identifying DNA-strand breakage in individual cells, for example. The assay was performed using a kit commercially-available from Trevigen, Inc., of Gaithersburg, Md., as “CometAssay™.” See P. J. McCarthy et al. (1997) Mutagenesis 12:209-214; A. R. Collins et al. (2001) Biochem. Soc. Trans. 29:337-341. Sub-confluent cells were washed with phosphate buffered saline (PBS) and detached from the tissue culture flasks using a 0.05% trypsin solution. After centrifugation, the cells were washed and re-suspended in serum-free DMEM medium. The cells were divided into Eppendorf tubes (1.5 ml), and centrifuged at 2500 rotations per minutes (rpm) for ten minutes. Signal-modulating agents were added and samples were kept in a 37° C. incubator for thirty minutes. In some experiments, the cells were pre-incubated with various inhibitors for the indicated times at 37° C. At the end of the incubation period with signal-modulating chemicals, the cells were washed with PBS and treated with 100 μM H2O2 in 0.5 ml PBS on ice for twenty minutes. Following the hydrogen peroxide treatment, the cells were immediately microfuged for fifteen seconds. The cells were twice washed with cold PBS, and re-suspended at 1.0×10^5 cells/ml in ice-cold PBS. […]
as §2

The mark [10] stands for this setting: dependence of DNA damage protection signaling.

Values joined by “and” are separate entries in the source; they are usually repeats but may differ in a detail not shown here. Equal entries are not always repeated. Where two headings read alike, the source gives them in different places.

What is called IC50 is the concentration that gives 50% inhibition.

As for `Nc1nc(Cl)nc2c1ncn2[C@@H]1O[C@H](CO)[C@@H](O)[C@H]1O` [2CA, 2-chloroadenosine], the concentration for half-maximal inhibition (IC50) in assay [1] came out at 140 nM. Also, in [2] (setting [10]), the “Mechanism of Signal Transduction: FT” value is recorded as “−”, the “Mechanism of Signal Transduction: GGT” value is “−”, the “Mechanism of Signal Transduction: Mevalonate Pathway” value is “−” and the “Mechanism of Signal Transduction: PKA” value is recorded as “+”. Moreover, the “Mechanism of Signal Transduction: Proteasome” value in assay [2] (setting [10]) is listed as “−”. Also, the “DNA damage protection induction” value in assay [3] (HL60, K562, XPA, data not shown) is reported as “intact DNA damage protection induction”. In addition, in [4], the IC50 was found to be 120 nM. Also, in assay [5], the “c[AMP]i over time” value was “triggered an increase”. Besides, in assay [6], the “H2O2-induced ROS formation” value is reported as “equivalent inhibition of H2O2-induced ROS formation”. Also, the “response to antioxidative signaling” value in assay [7] (data not shown) is “all could respond”. Also, the “H2O2-mediated DNA damage” value in assay [8] (10 μM agent, 100 μM H2O2 for twenty minutes, FIG. 5) is “prevented H2O2-mediated DNA damage”. Moreover, in [8] (Homo sapiens, AR agonists and isoprenyls, M1 cells, 100 μM H2O2, Comet assay, read-out: IC50 (pM), DNA damage protection), the IC50 came out at 2040 pM. The IC50 in assay [8] (Homo sapiens, M1 cells pre-incubated thirty minutes, then 100 μM H2O2, FIGS. 6 and 7, read-out: IC50, DNA damage protection) was 2040 pM. Besides, in assay [8] (M1 cells, various concentrations, 100 μM H2O2), the “triggering of DNA damage protection” value is listed as “triggered DNA damage protection”. Besides, the “DNA damage protection response” value in assay [9] (A1AR-transfected HEK293 cells, 100 μM H2O2) was “failed to transduce the antioxidative signal”.

`C=C(C)CCOP(=O)(O)OP(=O)(O)O` [IPP, isopentenyl diphosphate]: in assay [2], the “Mechanism of Signal Transduction: FT” value is on record as “−”, the “Mechanism of Signal Transduction: GGT” value was “+”, the “Mechanism of Signal Transduction: Mevalonate Pathway” value was “+” and the “Mechanism of Signal Transduction: PKA” value is on record as “−”. The “Mechanism of Signal Transduction: Proteasome” value in [2] is reported as “+”. Further, the “DNA damage protection induction” value in assay [3] was “intact DNA damage protection induction”. Also, in assay [5], the “c[AMP]i over time” value was “did not trigger any meaningful increase”. In addition, in assay [6], the “H2O2-induced ROS formation” value is “equivalent inhibition of H2O2-induced ROS formation”. Further, in assay [6] (different concentrations, 50 mU/ml GO for thirty minutes, FIG. 3), the ROS generation entry is “efficient at blocking ROS generation”. In assay [7], the “response to antioxidative signaling” value is recorded as “all could respond”. In assay [8], the “H2O2-mediated DNA damage” value was “prevented H2O2-mediated DNA damage”, the “potency relative to 2-chloroadenosine” value is reported as “about 100 times” and the “triggering of DNA damage protection” value was “triggered DNA damage-protection signaling”. Also, the IC50 in [8] (read-out: IC50 (pM), DNA damage protection) turned out to be 17 pM. Besides, the IC50 in assay [8] (read-out: IC50, DNA damage protection) is 17 pM and ~17 pM. In assay [9], the “DNA damage protection response” value is on record as “responded readily”.

(Values after patent US20050215529A1, “Method of treating oxidative stress-associated conditions with isopentenyl diphosphate” (THE REGENTS OF THE UNIVERSITY OF MICHIGAN, priority 2004, published 2005).)
